The record followed here is PMC12675537, “Molecular basis for multidrug efflux by an anaerobic-associated RND transporter” (Nature Communications, 2025).

Data set [1] deals with T1, MdtF (Escherichia coli, UniProt P37637).
T1 construct: MdtF-6xHis (C-terminal His tag) in SMALP native-lipid nanodiscs; homotrimer
As to the kind of experiment: fluorescence polarisation; thermal stabilisation (CD, DSC, nanoDSF). It is filed as binding.

Data set [2] concerns the target T2, MdtF (Escherichia coli, UniProt P37637, V610F).
T2 construct: MdtF-6xHis (C-terminal His tag) in SMALP native-lipid nanodiscs; homotrimer
T2 sequence (P37637 1-1037 V610F): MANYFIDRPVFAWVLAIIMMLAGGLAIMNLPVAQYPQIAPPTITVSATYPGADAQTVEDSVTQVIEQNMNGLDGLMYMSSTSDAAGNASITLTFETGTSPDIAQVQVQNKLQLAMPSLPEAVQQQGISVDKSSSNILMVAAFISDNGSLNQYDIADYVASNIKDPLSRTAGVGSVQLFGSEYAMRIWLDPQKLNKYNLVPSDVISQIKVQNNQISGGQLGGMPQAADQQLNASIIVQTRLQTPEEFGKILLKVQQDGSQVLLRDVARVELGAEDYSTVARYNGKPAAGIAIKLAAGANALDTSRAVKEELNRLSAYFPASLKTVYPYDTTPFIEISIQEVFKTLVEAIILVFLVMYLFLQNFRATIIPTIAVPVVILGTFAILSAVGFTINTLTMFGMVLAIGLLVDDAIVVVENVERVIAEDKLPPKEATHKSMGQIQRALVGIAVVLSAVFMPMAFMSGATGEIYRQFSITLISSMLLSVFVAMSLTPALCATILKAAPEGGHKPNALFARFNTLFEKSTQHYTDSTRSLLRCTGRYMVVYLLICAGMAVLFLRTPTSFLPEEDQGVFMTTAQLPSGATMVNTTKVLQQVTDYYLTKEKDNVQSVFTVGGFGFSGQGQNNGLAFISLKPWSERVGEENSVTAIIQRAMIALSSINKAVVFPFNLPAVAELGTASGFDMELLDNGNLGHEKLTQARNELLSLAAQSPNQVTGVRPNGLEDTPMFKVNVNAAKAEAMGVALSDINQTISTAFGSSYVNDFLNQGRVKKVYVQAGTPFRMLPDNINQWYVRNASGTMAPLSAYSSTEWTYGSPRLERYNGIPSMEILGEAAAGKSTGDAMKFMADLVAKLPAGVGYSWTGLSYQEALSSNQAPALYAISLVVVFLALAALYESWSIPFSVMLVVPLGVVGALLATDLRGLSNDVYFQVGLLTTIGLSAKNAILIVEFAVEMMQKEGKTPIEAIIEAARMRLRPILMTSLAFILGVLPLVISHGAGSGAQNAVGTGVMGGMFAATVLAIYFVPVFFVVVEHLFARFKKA
As to the kind of experiment: fluorescence polarisation Kd; thermal stabilisation (CD, DSC, nanoDSF). It counts as binding.

The data set “cryo-EM structure” concerns the molecule itself. Nature of the data set: cryo-EM structure.

Take `CC/N=c1\cc2oc3cc(NCC)c(C)cc3c(-c3ccccc3C(=O)OCC)c-2cc1C` [R6G, Rhodamine 6G]: the Kd at MdtF [1] was found to be 390 ± 90 nM; at MdtF [2] it was 720 ± 90 nM.

B1: Escherichia coli multidrug transporter MdtF, wild type (MdtF-6xHis) in SMA lipid particles (natural protein)
chain: MANYFIDRPVFAWVLAIIMMLAGGLAIMNLPVAQYPQIAPPTITVSATYPGADAQTVEDSVTQVIEQNMNGLDGLMYMSSTSDAAGNASITLTFETGTSPDIAQVQVQNKLQLAMPSLPEAVQQQGISVDKSSSNILMVAAFISDNGSLNQYDIADYVASNIKDPLSRTAGVGSVQLFGSEYAMRIWLDPQKLNKYNLVPSDVISQIKVQNNQISGGQLGGMPQAADQQLNASIIVQTRLQTPEEFGKILLKVQQDGSQVLLRDVARVELGAEDYSTVARYNGKPAAGIAIKLAAGANALDTSRAVKEELNRLSAYFPASLKTVYPYDTTPFIEISIQEVFKTLVEAIILVFLVMYLFLQNFRATIIPTIAVPVVILGTFAILSAVGFTINTLTMFGMVLAIGLLVDDAIVVVENVERVIAEDKLPPKEATHKSMGQIQRALVGIAVVLSAVFMPMAFMSGATGEIYRQFSITLISSMLLSVFVAMSLTPALCATILKAAPEGGHKPNALFARFNTLFEKSTQHYTDSTRSLLRCTGRYMVVYLLICAGMAVLFLRTPTSFLPEEDQGVFMTTAQLPSGATMVNTTKVLQQVTDYYLTKEKDNVQSVFTVGGFGFSGQGQNNGLAFISLKPWSERVGEENSVTAIIQRAMIALSSINKAVVFPFNLPAVAELGTASGFDMELLDNGNLGHEKLTQARNELLSLAAQSPNQVTGVRPNGLEDTPMFKVNVNAAKAEAMGVALSDINQTISTAFGSSYVNDFLNQGRVKKVYVQAGTPFRMLPDNINQWYVRNASGTMAPLSAYSSTEWTYGSPRLERYNGIPSMEILGEAAAGKSTGDAMKFMADLVAKLPAGVGYSWTGLSYQEALSSNQAPALYAISLVVVFLALAALYESWSIPFSVMLVVPLGVVGALLATDLRGLSNDVYFQVGLLTTIGLSAKNAILIVEFAVEMMQKEGKTPIEAIIEAARMRLRPILMTSLAFILGVLPLVISHGAGSGAQNAVGTGVMGGMFAATVLAIYFVPVFFVVVEHLFARFKKA
notes: also called MdtF^WT; apo-MdtF^WT; source: E. coli C43(DE3) ΔacrAB, extracted from membranes with SMA 2000 into SMALPs, purified (Ni-NTA, SEC)
For the molecule B1, the “stoichiometry N” value in the data set “cryo-EM structure” was 3.

B2: Escherichia coli multidrug transporter MdtF with the single-point mutation V610F (MdtF-6xHis) in SMA lipid particles (natural protein)
chain: MANYFIDRPVFAWVLAIIMMLAGGLAIMNLPVAQYPQIAPPTITVSATYPGADAQTVEDSVTQVIEQNMNGLDGLMYMSSTSDAAGNASITLTFETGTSPDIAQVQVQNKLQLAMPSLPEAVQQQGISVDKSSSNILMVAAFISDNGSLNQYDIADYVASNIKDPLSRTAGVGSVQLFGSEYAMRIWLDPQKLNKYNLVPSDVISQIKVQNNQISGGQLGGMPQAADQQLNASIIVQTRLQTPEEFGKILLKVQQDGSQVLLRDVARVELGAEDYSTVARYNGKPAAGIAIKLAAGANALDTSRAVKEELNRLSAYFPASLKTVYPYDTTPFIEISIQEVFKTLVEAIILVFLVMYLFLQNFRATIIPTIAVPVVILGTFAILSAVGFTINTLTMFGMVLAIGLLVDDAIVVVENVERVIAEDKLPPKEATHKSMGQIQRALVGIAVVLSAVFMPMAFMSGATGEIYRQFSITLISSMLLSVFVAMSLTPALCATILKAAPEGGHKPNALFARFNTLFEKSTQHYTDSTRSLLRCTGRYMVVYLLICAGMAVLFLRTPTSFLPEEDQGVFMTTAQLPSGATMVNTTKVLQQVTDYYLTKEKDNVQSVFTFGGFGFSGQGQNNGLAFISLKPWSERVGEENSVTAIIQRAMIALSSINKAVVFPFNLPAVAELGTASGFDMELLDNGNLGHEKLTQARNELLSLAAQSPNQVTGVRPNGLEDTPMFKVNVNAAKAEAMGVALSDINQTISTAFGSSYVNDFLNQGRVKKVYVQAGTPFRMLPDNINQWYVRNASGTMAPLSAYSSTEWTYGSPRLERYNGIPSMEILGEAAAGKSTGDAMKFMADLVAKLPAGVGYSWTGLSYQEALSSNQAPALYAISLVVVFLALAALYESWSIPFSVMLVVPLGVVGALLATDLRGLSNDVYFQVGLLTTIGLSAKNAILIVEFAVEMMQKEGKTPIEAIIEAARMRLRPILMTSLAFILGVLPLVISHGAGSGAQNAVGTGVMGGMFAATVLAIYFVPVFFVVVEHLFARFKKA
notes: also called MdtF^V610F; apo-MdtF^V610F; source: E. coli C43(DE3) ΔacrAB, extracted from membranes with SMA 2000 into SMALPs, purified (Ni-NTA, SEC)
As to B2, the binding result in “cryo-EM structure” is listed as “binds”.
